Test results reported in patent US11229611B2, “Clobazam transdermal delivery system and uses thereof” (TAHO Pharmaceuticals Ltd., priority 2020, dated 2022).
Values after ≈ are worked out from the molar mass of the structure shown.

Columns and labels:
[1] = solubility and compatibility of clobazam in a variety of excipients; format: physicochemical
Protocol: Solubility and compatibility of clobazam were tested in a variety of excipients according to the following functions: (1) alcohols; (2) emollients/oils; (3) esters; (4) fatty acids; (5) fatty acid esters; (6) fatty alcohols; (7) solubilizers; (8) solvents; and (9) surfactants.

[2] = test system: isolated human cadaver epidermis; experiment: flux through skin of EVA/PIB multilaminate formulations; format: in vitro ADME
From the text: In certain embodiments, the adhesive composition contains the HMW and LMW PIB in weight ratios (HMW PIB: LMW PIB) in the range of about 3-40:97-60, in the range of about 5-25:95-75 and in the range of about 10-20:90-80. The ratio of HMW PIE to LMW PIE that provides an optimal adhesive for a specific drug agent will be dependent upon the identity and concentration of agent being delivered. As an example, in one effective embodiment the PIB adhesive includes 5 wt % HMW PIB material (such as OPPANOL L80, LlOO, and L 140 from BASF) and 95 wt % LMW PIB material (Such as OPPANOL BlO, BI 1, B12, and B13 from BASF).
Optionally, modification of flux of the drug through the PIB can be effected by incorporating in the adhesive material such as micronized, crosslinked polyvinylpyrrolidone (PVP), such as CROSPOVIDONE (Kollidon CL-CY from BASF typically with bulk density between 0.2-0.3 g/cm3 and particle size D90 of 10-20 micron). Such PVP improves the permeability of clobazam material through the PIB layer.
Varying the amounts of CROSPOVIDONE in the PIB adhesive would result in fine-tuning the flux of clobazam to desired levels. For example, multilaminate formulations containing different PVP amounts were tested for the effect of such variation on flux through skin. The multilaminate formulations contained 35 wt % of clobazam base in EVA40, an EVA12 as tie layer and PIB adhesive (5:95 L100:B12 PIB) with 12 wt % or 18 wt % PVP were tested. […] A formulation containing 30 wt % clobazam base and 15 wt % PVP was also tested. The flux of clobazam formulation from this formulation was 6.3μg/(cm^2 h). […] PIB polymers are available commercially, e.g., under the tradename VISTANEX™ from Exxon Chemical. The amount of PVP in the resulting adhesive can be about 1 wt % to 30 wt %, about 5 wt % to 25 wt %, about 8 wt % to 20 wt %.
Transdermal flux can be measured with a standard procedure using Franz cells or using an array of formulations. Flux experiments were done on isolated human cadaver epidermis. With Franz cells, in each Franz diffusion cell a disc of epidermis is placed on the receptor compartment. A transdermal delivery system is placed over the diffusion area (1.98 cm^2) in the center of the receptor. The donor compartment is then added and clamped to the assembly. At time 0, receptor solution (between […] and 24 ml, exactly measured) is added into the receptor compartment and the cell maintained at 35° C. This temperature yields a skin surface temperature of 30-32° C. Samples of the receptor compartment are taken periodically to determine the flux through skin and analyzed by HPLC. An alternative way to test flux is to use an array of patches. In testing flux with an array of transdermal miniature patches, formulations are prepared by mixing stock solutions of each of the mixture components of formulation in organic solvents (about 15 wt % solids), followed by a mixing process. The mixtures are then aliquoted onto arrays as 4-mm diameter drops and allowed to dry, leaving behind solid samples or “dots.” (i.e., mini-patches). The miniature patches in the arrays are then tested individually for flux through skin using a permeation array, whose principle of drug flux from a patch formulation through epidermis to a compartment of receptor medium is similar to that of Franz cells (an array of miniature cells). […] Receptor fluid is auto-sampled from each of the permeation wells at regular intervals and then measured by HPLC to determine the flux of the drug.

[3] = cited from earlier work

SMILES: CN1C(=O)CC(=O)N(c2ccccc2)c2cc(Cl)ccc21 [clobazam, 7-Chloro-1-methyl-5-phenyl-1,5-dihydro benzo[b][1,4]diazepine-2,4-dione]
- solubility among various alcohols ([1]; in 4-allyl-2-ethoxyphenol): good solubility
- solubility among various surfactants, polymers and oils ([1]; in Caprylocaproyl polyoxyl-8 glycerides and transcutol P): some solubility
- solubility in solvents ([1]; in DCM, chloroform, DMA, DMI, DMSO and NMP): good solubility
- solubility among various fatty acids and fatty acid esters ([1]; in methyl L-lactate, levulinic acid and ethyl levulinate): good solubility
- average clobazam base flux ([2]; 5:95 L100:B12 PIB adhesive with 20 wt % CROSPOVIDONE): 33.3 μg/(cm^2-h)
- flux ([2]; 35 wt % clobazam base in EVA40, EVA12 tie layer, PIB adhesive (5:95 L100:B12) with 12 wt % PVP): 5.4 μg/(cm^2 h)
- flux ([2]; 35 wt % clobazam base in EVA40, EVA12 tie layer, PIB adhesive (5:95 L100:B12) with 18 wt % PVP): 7.5 μg/(cm^2 h)
- clobazam base average flux ([2]; clobazam 35 wt % in EVA40 drug layer 4-7 mil, PIB adhesive 5 wt % HMW / 95 wt % LMW, 2-3 mil): 5.5 μg/cm^2-h
- flux ([2]; formulation with 30 wt % clobazam base and 15 wt % PVP): 6.3 μg/(cm^2 h)
- solubility in water ([3]; water at 25° C.): 70 microgram/ml
- water Solubility ([3]; water): 164 µg/mL (≈ 545 µM)
